Structures are written as SMILES.

Here are results for four compounds from patent publication US20080096969A1, “N alpha-(Menthanecarbonyl)amino acid amides and use thereof as physiological cooling active ingredients” (SYMRISE GMBH & CO. KG, priority 2006, published 2008).

Series [1] is described as follows: Organoleptic test of cooling action in confectioner's fondant by a panel of experts. The format is in vivo. As to conditions: 0.05 wt. % relative to the overall preparation, scale from 1 (no cooling action) to 9 (extremely strong cooling action). How it is done: The compounds were tested for their organoleptic properties, in particular their cooling action. To this end, they were dissolved, in each case in a specific final concentration, in a mass prepared from sucrose (saccharose) and water (confectioner's fondant, supplier Nordzucker A G, Nordstemmen) and evaluated by a panel of experts. Sensory impressions were rated and the cooling action was assessed on a scale from 1 (no cooling action) to 9 (extremely strong cooling action).

The conditions of series [2]: study of approx. 1200 compounds; cited from earlier work.
The conditions of series [3]: forms the free acid N-(L-menthanecarbonyl)glycine; cited from earlier work.

As to `CC(C)CNC(=O)CNC(=O)[C@@H]1C[C@H](C)CC[C@H]1C(C)C` [Example 1, L-N^α-(menthanecarboxyl)glycine-N-isobutylamide], the cooling action in series [1] is listed as 5.

As for `CC1CCC(C(C)C)C(C(=O)NCC(=O)O)C1` [N-(L-menthanecarbonyl)glycine], in series [2], the “cooling action (literature)” value is “very weak cooling action”. In the case of `CCNC(=O)C1CC(C)CCC1C(C)C` [WS3, L-menthane carboxylic acid N-ethylamide], the “cooling action (literature)” value in series [2] is listed as “most strongly cooling active ingredients”. `CCOC(=O)CNC(=O)C1CC(C)CCC1C(C)C` [WS5, N^α-(L-menthanecarbonyl)glycine ethyl ester]: in series [3], the susceptibility to hydrolysis result is “susceptible to hydrolysis”. In addition, the “cooling action (literature)” value in series [2] is listed as “most strongly cooling active ingredients”.
